For this experiment, the target named is T1, MRGPRX4 (Homo sapiens, UniProt Q96LA9).
T1 construct: expressed in transfected cells; host or cells: HEK293T
The experiment is described as follows: IP1 accumulation HTRF assay, MRGPRX4. Further details: key to IP1 Basal / IP1 accumulation with YM (Figure 1c) / response to agonist, MRGPRX4 / IP1 accumulation: % IP1: unstimulated mock-transfected = 0%, fully stimulated MRGPRX4 = 100%. Conditions: for Emax: HEK-293T. The class given is cell-based. (In general: TR-FRET usually uses a lanthanide donor and a delayed reading to cut background.)

The structures appear in SMILES notation. Like-named read-outs stand apart in the source and are kept apart here.

As usually defined, the EC50 is the concentration at which the effect is half-maximal.

T1 sequence (Q96LA9 whole entry): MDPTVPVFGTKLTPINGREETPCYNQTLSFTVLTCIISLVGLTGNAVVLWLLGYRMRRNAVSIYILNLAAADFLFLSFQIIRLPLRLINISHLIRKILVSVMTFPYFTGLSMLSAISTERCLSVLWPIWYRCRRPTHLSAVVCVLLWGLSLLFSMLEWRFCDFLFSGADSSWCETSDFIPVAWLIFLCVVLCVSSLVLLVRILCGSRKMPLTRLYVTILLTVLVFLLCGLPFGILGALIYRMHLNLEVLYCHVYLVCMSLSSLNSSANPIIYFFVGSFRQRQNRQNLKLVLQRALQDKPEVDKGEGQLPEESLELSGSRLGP

Regarding `C[C@H](CCC(=O)NCCS(=O)(=O)O)[C@H]1CC[C@H]2[C@@H]3CC[C@@H]4C[C@H](O)CC[C@]4(C)[C@H]3C[C@H](O)[C@]12C` [TDCA, Taurodeoxycholic acid], the activation at 100 µM (2 h, log [agonist] (M) -4, MRGX4-transfected, individual replicates, read-out: IP1 accumulation, dose-response (Figure 1a)) worked out at 48.8%. For the same molecule, the activation at 33.333 µM (2 h, log [agonist] (M) -4.47712, MRGX4-transfected, individual replicates, read-out: IP1 accumulation, dose-response (Figure 1a)) was found to be 32.5%. Moreover, the activation at 11.111 µM (2 h, log [agonist] (M) -4.95424, MRGX4-transfected, individual replicates, read-out: IP1 accumulation, dose-response (Figure 1a)) stood at 22.8%. Further, the activation at 3.7037 µM (2 h, log [agonist] (M) -5.43136, MRGX4-transfected, individual replicates, read-out: IP1 accumulation, dose-response (Figure 1a)) came out at 12.8%. Moreover, the activation at 1.2346 µM (2 h, log [agonist] (M) -5.90849, MRGX4-transfected, individual replicates, read-out: IP1 accumulation, dose-response (Figure 1a)) came out at 12.2%. Also, under “2 h, log [agonist] (M) -6.38561, MRGX4-transfected, individual replicates, read-out: IP1 accumulation, dose-response (Figure 1a)”, the activation at 0.4115 µM turned out to be 12.6%. The activation at 0.13717 µM (2 h, log [agonist] (M) -6.86273, MRGX4-transfected, individual replicates, read-out: IP1 accumulation, dose-response (Figure 1a)) is 10.1%. In addition, the “response to agonist, MRGPRX4” value (Figure 4c-f, agonist 100µM, MRGPRX4 alone (reference = 100)) is 100. For the same molecule, the Emax came out at 84.2% (MRGPRX4 (Fig. 1A), HEK293T, normalized to 100 μM nateglinide, read-out: IP1 Emax) and 69.6% (MRGPRX4 (Fig. 1A), HEK293T, normalized to 100 μM nateglinide, read-out: IP1 span). For the setting “MRGPRX4 (Fig. 1A), HEK293T, normalized to 100 μM nateglinide”, the “IP1 Basal” value amounted to 14.54. Moreover, the concentration for a half-maximal effect (EC50) (MRGPRX4 (Fig. 1A), HEK293T, normalized to 100 μM nateglinide, read-out: IP1 EC50) was found to be 53.2 µM.

Source of the values: paper PMC10165273, “Itch receptor MRGPRX4 interacts with the receptor activity–modifying proteins” (The Journal of Biological Chemistry, 2023).
